Laboratory results taken from US20160355530A1, “HEPATITIS C INHIBITORS AND USES THEREOF” (AbbVie Inc., priority 2010, published 2016).
Read-outs that look alike come from different tables or passages of the source.

Tests used:
[1] = tested on: HCV 1b-BB7 subgenomic replicon; test: microbe, parasite or virus in culture; format: cell-based, HCV genotype 1b; conditions: Hepatitis C virus, stable replicon
[2] = tested on: chimeric replicon with genotype 3a NS5B; test: microbe, parasite or virus in culture; format: cell-based, HCV genotype 3a; conditions: Hepatitis C virus, read-out: 3a chimera 5% FBS EC50
[3] = tested on: chimeric replicon with 2a-J6CF-derived NS5B; test: microbe, parasite or virus in culture; format: cell-based, HCV genotype 2a; conditions: Hepatitis C virus, read-out: 2a chimera 5% FBS EC50
[4] = tested on: chimeric replicon with genotype 4a NS5B; test: microbe, parasite or virus in culture; format: cell-based, HCV genotype 4a; conditions: Hepatitis C virus, read-out: 4a chimera 5% FBS EC50
[5] = target: T1, HCV NS5B polymerase 1b BK strain (Hepatitis C virus genotype 1b, UniProt P26663); test: HCV NS5B polymerase enzymatic inhibition assay, strain 1b BK; format: biochemical; conditions: enzyme, strain 1b BK; read-out: HCV Polymerase Strain 1b BK IC50
T1 construct: six-histidine tag; made in house; host or cells: E. coli
T1 sequence (P26663 2420-2989): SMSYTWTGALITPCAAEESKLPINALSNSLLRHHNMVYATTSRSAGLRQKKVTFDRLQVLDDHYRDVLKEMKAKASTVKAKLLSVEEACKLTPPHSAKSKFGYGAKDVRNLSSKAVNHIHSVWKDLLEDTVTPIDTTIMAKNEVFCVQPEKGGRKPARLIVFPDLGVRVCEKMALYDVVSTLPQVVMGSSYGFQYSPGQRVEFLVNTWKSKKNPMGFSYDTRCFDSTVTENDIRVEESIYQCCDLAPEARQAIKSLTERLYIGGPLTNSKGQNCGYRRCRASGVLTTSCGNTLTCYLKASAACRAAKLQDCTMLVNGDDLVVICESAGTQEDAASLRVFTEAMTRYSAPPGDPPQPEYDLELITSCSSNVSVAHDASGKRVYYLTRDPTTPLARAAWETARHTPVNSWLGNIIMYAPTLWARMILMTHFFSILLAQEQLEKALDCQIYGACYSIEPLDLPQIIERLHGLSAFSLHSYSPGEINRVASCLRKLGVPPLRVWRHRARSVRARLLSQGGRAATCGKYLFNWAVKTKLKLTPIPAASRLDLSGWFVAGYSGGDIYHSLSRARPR
How it was run: (§1)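 Incorporation of [3H]UTP (0.284 μM), alongside 20 μM each CTP and ATP, into RNA copied from a 5 nM 2.1 kb genotype 1b negative-strand template was measured after 3 h at 30° C using purified His-tagged NS5B truncated at residue 570. Product was spermine-precipitated, filtered and scintillation-counted; nonlinear regression gave IC50.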

[6] = tested on: chimeric replicon with genotype 2b NS5B; test: microbe, parasite or virus in culture; format: cell-based, HCV genotype 2b; conditions: Hepatitis C virus, read-out: 2b chimera 5% FBS EC50
[7] = tested on: HCV NS5B polymerase 1a-H77-C316Y; test: biochemical; design: species or system HCV genotype 1a; conditions: ratio of enzyme IC50s, 1a H77-C316Y / 1a H77
How it was run: as §1

[8] = target: T2, HCV NS5B polymerase 1a-H77-C316Y (Hepatitis C virus genotype 1a, UniProt P27958, C2736Y); test: biochemical; design: species or system HCV genotype 1a
T2 construct: six-histidine tag; made in house; host or cells: E. coli
T2 sequence (P27958 2421-2990 C2736Y): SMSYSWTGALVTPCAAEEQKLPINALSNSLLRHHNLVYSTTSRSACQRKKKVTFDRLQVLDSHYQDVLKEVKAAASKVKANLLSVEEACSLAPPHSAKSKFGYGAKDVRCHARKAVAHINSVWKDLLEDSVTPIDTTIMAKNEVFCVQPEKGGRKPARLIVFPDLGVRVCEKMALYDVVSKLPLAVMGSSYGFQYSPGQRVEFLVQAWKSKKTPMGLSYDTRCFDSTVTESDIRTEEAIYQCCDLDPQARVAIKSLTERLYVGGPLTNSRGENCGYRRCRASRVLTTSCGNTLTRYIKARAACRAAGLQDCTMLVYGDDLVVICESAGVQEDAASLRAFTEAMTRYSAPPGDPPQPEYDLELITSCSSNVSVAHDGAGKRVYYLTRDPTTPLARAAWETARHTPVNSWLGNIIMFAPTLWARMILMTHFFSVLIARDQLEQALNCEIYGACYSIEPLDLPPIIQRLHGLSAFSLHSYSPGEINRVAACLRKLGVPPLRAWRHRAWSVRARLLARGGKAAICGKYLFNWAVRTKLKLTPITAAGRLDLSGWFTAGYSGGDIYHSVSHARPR
How it was run: as §1

[9] = target: T3, HCV NS5B polymerase 1a-H77 (Hepatitis C virus genotype 1a, UniProt P27958); test: biochemical; design: species or system HCV genotype 1a; conditions: enzyme, strain 1a H77; read-out: HCV Polymerase Strain 1a H77 IC50
T3 construct: six-histidine tag; made in house; host or cells: E. coli
T3 sequence (P27958 2421-2990): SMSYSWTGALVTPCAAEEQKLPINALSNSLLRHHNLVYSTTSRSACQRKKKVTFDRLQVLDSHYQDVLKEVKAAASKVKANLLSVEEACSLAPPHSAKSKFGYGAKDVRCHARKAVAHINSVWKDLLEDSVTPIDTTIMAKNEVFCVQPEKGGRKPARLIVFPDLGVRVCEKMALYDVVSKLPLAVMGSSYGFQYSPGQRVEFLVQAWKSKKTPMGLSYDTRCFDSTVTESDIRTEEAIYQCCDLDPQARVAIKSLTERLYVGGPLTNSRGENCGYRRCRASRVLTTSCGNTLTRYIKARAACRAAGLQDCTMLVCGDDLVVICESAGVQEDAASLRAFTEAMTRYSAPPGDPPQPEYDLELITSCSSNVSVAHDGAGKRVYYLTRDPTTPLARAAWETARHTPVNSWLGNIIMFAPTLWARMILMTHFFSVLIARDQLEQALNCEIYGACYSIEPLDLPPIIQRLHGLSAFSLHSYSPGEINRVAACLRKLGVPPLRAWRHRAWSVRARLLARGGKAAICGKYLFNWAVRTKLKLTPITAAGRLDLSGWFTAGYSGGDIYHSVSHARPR
How it was run: as §1

[10] = tested on: HCV 1a-H77 transient subgenomic replicon in Huh-7 derived cell line; test: microbe, parasite or virus in culture; format: cell-based, HCV genotype 1a; conditions: Hepatitis C virus, Huh-7; transient replicon, 5% FBS; read-out: Transient Replicon 1a H77 5% FBS EC50
Experimental: (§2) In addition to the stable replicon inhibition assays, transient replicon assays were performed. Transient replicons are identical to the 1a-H77 and 1a-H77-C316Y constructs, except they lack the Neo gene, making it impossible to establish stable cell lines. A T7 Megascript RNA synthesis kit (Ambion) was used to transcribe the HCV subgenomic RNA. The HCV RNA was then precipitated with lithium chloride according to manufacturer's instructions. The HCV subgenomic replicon RNA was transfected via electroporation into a Huh-7 derived cell line as described (Middleton T, et al. J. Virological Methods 2007; 145(2): 137-145). Transfected cells were diluted and plated in 96 well plates at 5×10^3 cells per well in DMEM. Four hours post-transfection, the wells from one plate were harvested for luciferase measurement. This plate provides a measure of the amount of translatable input RNA, and therefore transfection efficiency. To the wells of the remaining plates, a 3-fold dilution series of test compounds was added in DMSO (0.5% DMSO final concentration), and plates were incubated at 37° C., 5% CO2 in a humidified incubator for 4 days. After this period, the media was removed and the plates were washed with 100 μL phosphate-buffered saline per well. For the luciferase assay, 30 μL of Passive Lysis buffer (Promega) was added to each well, and then the plates were incubated for 15 minutes with rocking to lyse the cells. Luciferin solution (100 μL, Promega) was added to each well, and luciferase activity was measured with a Victor II luminometer (Perkin-Elmer). The EC50 values were calculated using GraphPad Prism 4 software.

[11] = tested on: HCV 1a-H77 subgenomic replicon; test: microbe, parasite or virus in culture; format: cell-based, HCV genotype 1a; conditions: Hepatitis C virus, stable replicon
[12] = tested on: HCV 1a-H77-C316Y transient subgenomic replicon in Huh-7 derived cell line; test: microbe, parasite or virus in culture; format: cell-based, HCV genotype 1a; conditions: for EC50: Hepatitis C virus, Huh-7, read-out: Transient Replicon 1a H77-C316Y 5% FBS EC50; for Transient Replicon Fold Resistance C316Y/1a: ratio of transient replicon EC50s, C316Y / 1a H77
Experimental: as §2

[13] = strain 1b BB7, 5% FBS + 40% human plasma, read-out: 1b BB7 5% FBS + 40% Human Plasma EC50
[14] = strain 1b BB7, 5% FBS, no human plasma, read-out: 1b BB7 5% FBS EC50
[15] = strain 1b BB7, 5% FBS, read-out: 1b BB7 5% FBS EC50
[16] = 5% FBS, absence of human plasma, read-out: Stable Replicon 1a H77 5% FBS EC50
[17] = strain 1a H77, 5% FBS + 40% human plasma, read-out: 1a H77 5% FBS + 40% Human Plasma EC50
[18] = strain 1a H77, 5% FBS, no human plasma, read-out: 1a H77 5% FBS EC50
[19] = strain 1a H77, 5% FBS, read-out: 1a H77 5% FBS EC50

SMILES | EC50 [1, 13] [nM] | EC50 [1, 14] [nM] | EC50 [1, 15] [nM] | EC50 [2] [nM] | EC50 [3] [nM] | EC50 [4] [nM] | IC50 [5] [nM] | EC50 [6] [nM] | C316Y/1a Fold Resistance [7] [fold] | IC50 [8] [nM] | IC50 [9] [nM] | EC50 [10] [nM] | EC50 [11, 16] [nM] | EC50 [11, 17] [nM] | EC50 [11, 18] [nM] | EC50 [11, 19] [nM] | EC50 [12] [nM] | Transient Replicon Fold Resistance C316Y/1a [12] [fold]
CS(=O)(=O)Nc1cc2oc(-c3ccc(F)cc3)c(-c3ncc[nH]3)c2cc1C1CC1 [Example 1, N-[5-cyclopropyl-2-(4-fluorophenyl)-3-(1H-imidazol-2-yl)-1-benzofuran-6-yl]methanesulfonamide] | 281 | 18.2 | 18.2 | 13 | 223 | 242 | 87 | 219 | 304 | 1800 | 5.9 | 192 | 207 | 4710 | 207 | 207 | – | –
CS(=O)(=O)N(Cc1cnc(-c2ccc3nc[nH]c3c2)s1)c1ccc2c(-c3ncc[nH]3)c(-c3ccccc3)oc2c1 [Example 3, N-{[2-(1H-benzimidazol-6-yl)-1,3-thiazol-5-yl]methyl}-N-[3-(1H-imidazol-2-yl)-2-phenyl-1-benzofuran-6-yl]methanesulfonamide] | 760 | 5 | 5 | 2.8 | 29.3 | 135 | 10 | 81.8 | 4 | 11 | 3 | 21.3 | 48 | 7930 | 48 | 48 | 109 | 5
CC(C)CCN(c1cc2oc(-c3ccc(F)cc3)c(C3=NOCCN3)c2cc1C1CC1)S(C)(=O)=O [Example 10, N-[5-cyclopropyl-3-(5,6-dihydro-4H-1,2,4-oxadiazin-3-yl)-2-(4-fluorophenyl)-1-benzofuran-6-yl]-N-(3-methylbutyl)methanesulfonamide] | 171 | 16.2 | 16.2 | 16 | 181 | 192 | 105 | 303 | – | 64 | 7 | 6 | 10.5 | 134 | 10.5 | 10.5 | 33.5 | 6
CC(C)CCN(c1cc2oc(-c3ccc(F)cc3)c(C3=NOC(C)N3)c2cc1C1CC1)S(C)(=O)=O (stereo not shown) [Example 14, N-[5-cyclopropyl-2-(4-fluorophenyl)-3-(5-methyl-4,5-dihydro-1,2,4-oxadiazol-3-yl)-1-benzofuran-6-yl]-N-(3-methylbutyl)methanesulfonamide] | 1060 | 93.5 | 93.5 | – | – | – | 35 | – | 8 | 70 | 8.5 | 28.1 | 24.3 | 805 | 24.3 | 24.3 | 152 | 5
CS(=O)(=O)N(Cc1cnc(-c2ccc3[nH]ccc3c2)s1)c1cc2oc(-c3ccc(F)cc3)c(-c3ncc[nH]3)c2cc1C1CC1 [Example 31, N-[5-cyclopropyl-2-(4-fluorophenyl)-3-(1H-imidazol-2-yl)-1-benzofuran-6-yl]-N-{[2-(1H-indol-5-yl)-1,3-thiazol-5-yl]methyl}methanesulfonamide] | 201 | 28.4 | 28.4 | – | 185 | 84 | 7 | 151 | 50 | 172 | 3.5 | 30.9 | 41.6 | 382 | 41.6 | 41.6 | 828 | 27
CCCN(c1cc2oc(-c3ccc(F)cc3)c(-c3ncc[nH]3)c2cc1C1CC1)S(C)(=O)=O [Example 64, N-[5-cyclopropyl-2-(4-fluorophenyl)-3-(1H-imidazol-2-yl)-1-benzofuran-6-yl]-N-propylmethanesulfonamide] | 110 | 12 | 12 | 1.6 | 57.9 | 125 | 29 | 67.4 | 34 | 180 | 5.3 | 20.2 | 24.3 | 267 | 24.3 | 24.3 | – | –
CC(C)CN(c1cc2oc(-c3ccc(F)cc3)c(-c3ncc[nH]3)c2cc1C1CC1)S(C)(=O)=O [Example 66, N-[5-cyclopropyl-2-(4-fluorophenyl)-3-(1H-imidazol-2-yl)-1-benzofuran-6-yl]-N-isobutylmethanesulfonamide] | 569 | 56.4 | 56.4 | 83.9 | 215 | 318 | 70 | 293 | 152 | 901 | 5.9 | 68.9 | 59.8 | 683 | 59.8 | 59.8 | – | –
CS(=O)(=O)N(CCCC(=O)O)c1cc2oc(-c3ccc(F)cc3)c(C3=NOCCN3)c2cc1C1CC1 [Example 135, 4-{[5-cyclopropyl-3-(5,6-dihydro-4H-1,2,4-oxadiazin-3-yl)-2-(4-fluorophenyl)-1-benzofuran-6-yl](methylsulfonyl)amino}butanoic acid] | 5520 | 783 | 783 | – | – | – | 28 | – | 11 | 41 | 3.9 | 372 | 969 | 7910 | 969 | 969 | 3040 | 8
COc1ccc(CN(c2cc3oc(-c4ccc(F)cc4)c(C4=NOC(C)N4)c3cc2C2CC2)S(C)(=O)=O)cc1 (stereo not shown) [Example 151, N-[5-cyclopropyl-2-(4-fluorophenyl)-3-(5-methyl-4,5-dihydro-1,2,4-oxadiazol-3-yl)-1-benzofuran-6-yl]-N-(4-methoxybenzyl)methanesulfonamide] | 1500 | 30 | 30 | – | – | – | 48 | – | 11 | 102 | 9 | 33.2 | 119 | 2280 | 119 | 119 | 2930 | 88
